Measurements from patent US10337049B2, “Universal methylation profiling methods” (THE TRUSTEES OF COLUMBIA UNIVERSITY IN THE CITY OF NEW YORK, priority 2013, dated 2019).
Values belong to the compound of their own block, whether it stands above or below them.

Assays:
[1] = Photo-irradiation of 16mer oligonucleotide, single base extension-MS analysis; assay type: physicochemical; details: primer 5′-TGCCGCACTC-3′, MS of elongated primer
Method: After HPLC purification, the modified 16mer was characterized by MALDI-TOF MS yielding a peak with MW of 5001, equal to the calculated mass. Then photo-irradiation of oligo [NT] ID NO: 1) was conducted to convert C* to a U analog. The outcome for conversion of C* in DNA was detected by using single base extension-MS analysis (FIG. 7). In this analysis, the photo-irradiated oligonucleotide was annealed with a primer […] 2964) (SEQ ID NO: 2), then incubated with ddNTPs and DNA polymerase. With the aid of DNA polymerase, one of the 4 ddNTPs can be selectively incorporated onto the 3' end of the primer. Photo-chemistry induced conversion of C to U should be able to direct the incorporation of ddA, resulting in an elongated primer with a MW of 3261, otherwise ddG should be incorporated giving an elongated primer of MW 3277. […] In the control experiment, photo-irradiation of the unmodified counterpart [NT] ID NO: 3) was conducted under the same conditions. […] We also measured possible photoirradiation-induced DNA damage. Under the conditions we used (300 nm, over 10 h) no DNA damage was observed.

[2] = Photo-irradiation of 5 position-modified deoxycytidine at about 300 nm, HPLC/UV/MS monitoring; assay type: physicochemical; details: for photochemical conversion to U analog on photo-irradiation: about 300 nm, aqueous solution, up to 12 h
Method: Photo-irradiation of 5-All-OMC at about 300 nm was then conducted in aqueous solution for up to 12 h, and the reaction products separated and monitored by HPLC and UV absorption.
Both C and 5-methyl-C remain intact after photo-irradiation under the same conditions. […] To further verify this conversion, 5-All-OMU was synthesized and characterized. […] The photochemically generated 5-All-OMU was also characterized by ^1HNMR.

[3] = Photoirradiation of 5-PhAll-OMC with 350 nm light in the presence of triplet sensitizer thioxanthone, HPLC analysis; assay type: physicochemical; details: 20 min
Source text: 5-PhAll-OMC was irradiated with 350 nm light in the presence of the triplet photosensitizer thioxanthone (TX).
The new product was found 1 mass unit higher than the starting material 5-PhAll-OMC, indicating possible U analog was generated from 5-PhAll-OMC. […] The ^13C NMR spectra, shown in FIG. 27, unambiguously confirm the formation of a [2+2] cycloadduct in either straight or cross configuration.

[4] = Laser flash photolysis, triplet energy transfer from thioxanthone; details: 355 nm pulsed laser, argon saturated acetonitrile, quencher 0 to 0.25 mM
pCa17 plasmid = test: in vivo functional assay / restriction protection assay of M.SssI variants (HpaII digestion of isolated plasmid); details: 200 ng plasmid, 1 U HpaII, 37° C., 1 hour, agarose gel

Compound: 5′-TACGACGAGTGCGGCA-3′: unmodified counterpart 16mer, control (DNA, backbone not given here)
- ddNTP incorporated in single base extension after photo-irradiation of template [1]: ddGTP

- photochemical conversion to U analog on photo-irradiation [2]: high efficiency
- HPLC profile during photo-irradiation ([2]; after 3 h of irradiation): the main peak is the starting material
- HPLC profile during photo-irradiation, starting material ([2]; after 12 h photo-irradiation): mostly consumed
Compound: C=CCOCc1cn([C@H]2C[C@H](O)[C@@H](CO)O2)c(=O)nc1N [5-All-OMC, 5-allyloxymethyl-dC]

- photochemical conversion to U analog on photo-irradiation [2]: remain intact
Compound: Cc1c[nH]c(=O)nc1N [5-methyl-C, 5-methylcytosine]

- ddNTP incorporated in single base extension after photo-irradiation of template [1]: ddATP
- photochemical conversion to U analog on photo-irradiation [2]: remain intact
Compound: Nc1cc[nH]c(=O)n1 [C, Cytosine]

Compound: O=c1c2ccccc2sc2ccccc12 [TX, thioxanthone]
- concentration of the sensitizer after photoirradiation [3]: remained unchanged

Compound: OCC=Cc1ccccc1 [cinnamyl alcohol]
- rate constant of quenching of thioxanthone triplet (triplet energy transfer), kq [4]: 7.8e+09 M⁻¹ s⁻¹

Compound: wild-type: wild type CpG specific DNA methyltransferase M.SssI expressed from pCAL7
- resistance of isolated M.SssI expressing plasmid to HpaII digestion (pCa17 plasmid): completely resistant
